In publication PMC4502315, “High Potency of a Novel Resveratrol Derivative, 3,3′,4,4′-Tetrahydroxy-trans-stilbene, against Ovarian Cancer Is Associated with an Oxidative Stress-Mediated Imbalance between DNA Damage Accumulation and Repair” (Oxidative Medicine and Cellular Longevity, 2015):

Assays:
[1] = tested on: OVCAR-3; test: LDH release assay, OVCAR-3; type: cell-based; conditions: Homo sapiens, 24 h; for IC50: CalcuSyn
Description: As per LDH release, the measurements were performed using the commercially available Pierce LDH Cytotoxicity Assay Kit (Pierce Biotechnology, Rockford, IL, USA). In this assay, cells with damaged plasma membranes release LDH into the culture environment; then the enzyme catalyses the conversion of lactate to pyruvate, which is accompanied by a reduction of NAD^+ to NADH. Afterwards, diaphorase uses NADH to reduce a tetrazolium salt to a formazan whose level is proportional to LDH activity. The absorbance emitted by the formazan was monitored at 490 nm with a reference wavelength of 680 nm.
In order to examine the effect of 3,3′,4,4′-THS on the viability of ovarian cancer cells and to compare its activity with RVT, subconfluent cultures of A2780, OVCAR-3, and SKOV-3 cells were subjected to a wide range of stilbene concentrations (0–500 μM) for 24 h; then MTT and LDH release assays were performed.

[2] = tested on: HPMCs; test: LDH release assay, HPMCs; type: cell-based, human; conditions: Homo sapiens, 24 h, CalcuSyn
[3] = tested on: A2780 cells; test: ROS production (H2DCFDA), A2780; type: cell-based, human; conditions: 24 h, 10, 50, 100 μM tested
Description: (§1) ROS production was assessed in cells probed with a fluorescent dye, 2′,7′-dichlorodihydrofluorescein diacetate (H2DCFDA; 5 μM) (Molecular Probes, Eugene, USA) for 45 min at 37°C. Fluorescence intensity in cell lysates was monitored in a Victor2 spectrofluorometer with excitation at 485 nm and emission at 535 nm.

[4] = tested on: OVCAR-3 cells; test: ROS production (H2DCFDA), OVCAR-3; type: cell-based, human; conditions: 24 h, 10, 50, 100 μM tested
Description: as §1

[5] = tested on: HOSE cells; test: ROS production (H2DCFDA), HOSE cells; type: cell-based, human; conditions: 24 h, percentage of control cells
Description: as §1

[6] = tested on: catalase (CAT); test: CAT activity, A2780; type: cell-based, human; conditions: 24 h, 10, 50, 100 μM tested
Description: (§2) Total activity of superoxide dismutase (SOD) was measured in cell lysates with a commercially available kit (R&D Systems Europe, Abingdon, UK), while the activity of catalase (CAT) was estimated by using the OxiSelect Catalase Activity Assay Kit (Cell Biolabs Inc., San Diego, CA, USA). Both assays were performed according to the manufacturer's instructions.

[7] = tested on: catalase (CAT); test: CAT activity, HOSE cells; type: cell-based, human; conditions: 24 h, percentage of control cells
Description: as §2

[8] = tested on: SKOV-3 cells; test: Oxidative DNA damage (8-OH-dG immunoassay), SKOV-3; type: cell-based, human; conditions: 24 h, 10, 50, 100 μM tested
Description: Oxidative DNA damage was assessed by measuring the 8-OH-dG concentration with a competitive immunoassay (Cell Biolabs Inc.), as per manufacturer's instructions. The efficiency of 8-OH-dG repair was estimated after cell recovery for 24 h in standard growth medium. In order to examine the activity of DNA glycosylase I, reverse transcription PCR was performed. RNA extraction was carried out using the RNA Bee (Tel-Test, Friendswood, Texas, USA) and purified according to the manufacturer's protocol. One microgram of RNA was reverse transcribed into cDNA with random hexamer primers, and cDNA was subjected to PCR. The profile of the replication cycles was denaturation at 94°C for 50 s, annealing at 58°C for 50 s, and polymerization at 72°C for 1 min. In each reaction, the expression of glyceraldehyde-3-phosphate dehydrogenase (GAPDH) served as the internal control. The primers used for PCR were as follows: hOGG1 forward, 5′-[…]-3′; hOGG1 reverse, 5′-TAGCCCGCCCTGTTCTTC-3′ designed to amplify a 551-bp region; GAPDH forward, 5′-CCATGGAGAAGGCTGGGG-3′; and GAPDH reverse 5′-[…]-3′ designed to amplify a 194-bp region (total number of cycles: 28). The PCR products were separated on 3% agarose gels stained with ethidium bromide and then visualized.

[9] = tested on: A2780 cells; test: Apoptosis (Hoechst 33258), A2780; type: cell-based, human; conditions: 24 h, 10, 50, 100 μM tested
Description: (§3) Identification of apoptosis was based on the presence of DNA condensation in cells stained with a fluorescent dye, Hoechst 33258 (Molecular Probes, Eugene, OR). Cells were grown on Lab-Tek Chamber Slides (Nunc, Roskilde, Denmark), fixed with 4% formaldehyde for 10 min and washed twice with PBS. Then the cells were incubated with Hoechst 33258 (0.1 μg/mL) for 5 min in the dark. After washing with PBS, stained nuclei were observed and counted under a Zeiss Axio Observer D1 fluorescence microscope (Carl Zeiss, Jena, Germany). The activity of caspases 3, 8, and 9 was quantified in the cell lysates using specific colorimetric kits (Abcam, Cambridge, UK) according to the manufacturer's instructions.

[10] = tested on: OVCAR-3 cells; test: Apoptosis (Hoechst 33258), OVCAR-3; type: cell-based, human; conditions: 24 h, 10, 50, 100 μM tested
Description: as §3

[11] = tested on: HPMCs; test: Apoptosis (Hoechst 33258), HPMCs; type: cell-based, human; conditions: 24 h, percentage of control cells
Description: as §3

[12] = tested on: HOSE cells; test: Cell proliferation (CFDA SE), HOSE cells; type: cell-based, human; conditions: 24 h, percentage of control cells
Description: Cell proliferative potential was determined using Cell Proliferation Kit I (PromoKine, Heidelberg, Germany) according to the manufacturer's instructions. In brief, cells were probed for 15 min with 5-(and 6)-carboxyfluorescein diacetate, a succinimidyl ester (CFDA SE; 2 μM) which diffuses into cells, covalently binds to proteins, and becomes fluorescent upon its hydrolysis by intracellular esterases. The fluorescence emitted by the cells (the dye is inherited by the daughter cells through successive divisions) was recorded using a Victor2 spectrofluorometer (Perkin-Elmer, Turku, Finland) with excitation at 435 nm and emission at 535 nm.

[13] = tested on: p38 MAPK; test: p38 MAPK activation (FACE ELISA), OVCAR-3; type: cell-based, human; conditions: 24 h, 10, 50, 100 μM tested
Description: (§4) Activation of p38 MAPK was examined using the Fast Activated Cell-Based ELISA (FACE) p38 kit (Active Motif) according to the manufacturer's instructions. In brief, cells were fixed with 4% formaldehyde and incubated with a primary antibody that recognizes either phosphorylated p38 or total p38 overnight at 4°C. Then the cells were washed and incubated with a secondary HRP-conjugated antibody for 1 h at room temperature. The color reaction that developed was read using a spectrofluorometer at 450 nm wavelength.
(§5) The results were expressed as a ratio of phosphorylated to total p38 activity.

[14] = tested on: p38 MAPK; test: p38 MAPK activation (FACE ELISA), HOSE cells; type: cell-based, human; conditions: 24 h, percentage of control cells
Description: as §4, §5

[15] = tested on: p38 MAPK; test: p38 MAPK activation (FACE ELISA), HPMCs; type: cell-based, human; conditions: 24 h, percentage of control cells
Description: as §4, §5

SMILES | IC50 [1] | IC50 [2] | generation of ROS, effect in words [3] | generation of ROS, effect in words [4] | ROS ([5]; 10 μM) | ROS ([5]; 50 μM) | ROS ([5]; 100 μM) | CAT activity, effect in words [6] | CAT ([7]; 10 μM) | CAT ([7]; 50 μM) | CAT ([7]; 100 μM) | concentration of 8-OH-dG (oxidative DNA damage), effect in words [8] | incidence of apoptosis (rise in percentage of death cells), effect in words [9] | incidence of apoptosis (rise in percentage of death cells), effect in words [10] | Apoptosis ([11]; 10 μM) | Apoptosis ([11]; 50 μM) | Apoptosis ([11]; 100 μM) | Proliferation ([12]; 10 μM) | Proliferation ([12]; 50 μM) | Proliferation ([12]; 100 μM) | also measured
Oc1ccc(/C=C/c2cc(O)cc(O)c2)cc1 [RVT, 3,4′,5-trihydroxy-trans-stilbene, reference compound] | 525 µM | 495 µM | (at 50 and 100 μM) inhibited the production of ROS | stimulated the release of ROS | 103 ± 3% | 105 ± 4% | 121 ± 7^∗ % | stimulated the enzyme at 10 μM in the OVCAR-3 cells, at 50 μM in the A2780, OVCAR-3, and SKOV-3 cells, and at 100 μM in the OVCAR-3 and SKOV-3 cells | 121 ± 6^∗ % | 119 ± 4^∗ % | 121 ± 6^∗ % | induced DNA injury in A2780 and SKOV-3 at 50 and 100 μM | exhibiting its impact at concentrations of 50 and 100 μM for the A2780 and SKOV-3 cells | at 100 μM for the OVCAR-3 cells | 101 ± 1% | 101 ± 1% | 98 ± 3% | 103 ± 4% | 102 ± 1% | 104 ± 2% | p38 MAPK activity (phosphorylated/total), effect in words [13]: failed to activate p38 MAPK; p38 MAPK ([14]; 10 μM): 103 ± 5%; p38 MAPK ([14]; 50 μM): 107 ± 10%; p38 MAPK ([14]; 100 μM): 108 ± 11%; p38 MAPK ([15]; 10 μM): 113 ± 16%; p38 MAPK ([15]; 50 μM): 103 ± 2%; p38 MAPK ([15]; 100 μM): 105 ± 7%
Oc1ccc(/C=C/c2ccc(O)c(O)c2)cc1O [3,3′,4,4′-THS, 3,3′,4,4′-tetrahydroxy-trans-stilbene] | 85 µM | 498 µM | markedly upregulated the generation of ROS | remarkably stronger | 75 ± 4^∗# % | 72 ± 3^∗# % | 99 ± 4 % | did not change CAT activity | 132 ± 1^∗# % | 163 ± 4^∗# % | 162 ± 1^∗# % | increasing the concentration of 8-OH-dG in the OVCAR-3 and SKOV-3 cells starting from a dose of 10 μM | evident starting from the lowest concentration of 10 μM | evident starting from the lowest concentration of 10 μM | 98 ± 2% | 102 ± 2% | 100 ± 4% | 116 ± 2^∗ % | 103 ± 1% | 99 ± 5% | viability at 10 µM ([1]; 10 μM, percentage of control cells): 62 ± 12%; viability at 50 µM ([1]; 50 μM, percentage of control cells): 53 ± 3%; viability at 100 µM ([1]; 100 μM, percentage of control cells): 46 ± 3%; p38 MAPK activity (phosphorylated/total), effect in words [13]: exerted upregulatory activity at 50 and 100 μM; p38 MAPK ([14]; 10 μM): 106 ± 5%; p38 MAPK ([14]; 50 μM): 104 ± 4%; p38 MAPK ([14]; 100 μM): 100 ± 3%; p38 MAPK ([15]; 10 μM): 82 ± 3^∗# %; p38 MAPK ([15]; 50 μM): 81 ± 6^∗# %; p38 MAPK ([15]; 100 μM): 104 ± 2%
